The values below come from patent US20150056702A1, “METHOD AND KIT FOR CULTURING STEM CELLS” (China Medical University, priority 2013, published 2015).

In one assay the test system is iPS cells. Kind of assay: Alkaline phosphatase staining of iPS cells. In kind it is cell-based, mouse. The settings on record: 72 hours, control group = 100%. The method, then: The protocol shown in experiment A was repeated, while an iPS cell (received from Riken Research Center, Japan) was cultured at step (4).
The protocol shown in experiment C was repeated, while an iPS cell (received from Riken Research Center, Japan) was cultured at step (2).
Alkaline phosphatase is a marker protein of stem cells. The activity measured by staining could be used to determine if BP can effectively maintain the self-renewal and/or pluripotency of stem cells.
An experimental group medium (BP5, BP10, BP20 or BP40), a LIF-containing medium (without BP) and a control group medium (without BP) were used respectively to culture ES cells in a 6-well culture dish with an initial density of 1×10^4 per well for 72 hours. The medium was removed and the cells were washed two times with PBS. Next, PBS was removed, and 1 ml of 80% ethanol was added into each well to perform the fixation at 4° C. for 2 to 24 hours. Next, ethanol was removed, and then the cells were washed one time with distilled water. The distilled water was added again to soak the cells for 2 to 3 minutes, and then be removed. Next, the cells were soaked with a Tris-HCl buffer (100 mM, pH 8.2 to 8.5) at room temperature for 5 minutes, and then, the buffer was removed. Next, a Leukocyte Alkaline Phosphatase kit (Vector) was used to perform the staining for 20 to 30 minutes, and then the Alkaline Phosphatase Substrate working solution was removed, the cells were soaked and washed by Tris-HCl buffer (100 mM, pH 8.2 to 8.5) and then be observed by a fluorescent microscope to count the number of the AP-positive clones. The undifferentiated ES cells with a higher activity show a red color, while the differentiated ES cells with a lower activity show a weak red color or are even colorless.
By using the above culture conditions, an experimental group medium (BP5, BP10, BP20 or BP40), a LIF-containing medium (without BP), and a control group medium (without BP) were used respectively to culture iPS cells. Then, the staining of iPS cells was performed by the steps described above. The undifferentiated iPS cells with a higher activity show a red color and the differentiated iPS cells with a lower activity show a weak red color or are even colorless.

For a further assay, the system named is EGF. Kind of assay: Real-time PCR, cytokine gene EGF in ES cells. In kind it is cell-based, mouse. The settings on record: for EGF mRNA expression level: ES cells, control group = 100%. The protocol: An experimental group medium (BP5, BP10, BP20 or BP40) and a control group medium (without BP) were added respectively to perform the following steps. ES cells were cultured with an initial density of 1×10^4 per well in a 6-well culture dish. The medium was removed until the cells growth to be about 70 to 80% confluence, and then 1 ml TRIzol (Invitrogen) was added into each well. The cells were incubated for 5 minutes, and then was scraped by a spatula and placed into a 1.5 ml microtube to be lysed adequately. Chloroform (0.2 ml) was added into the microtubes. The mixture was shaken up and down for 15 seconds, and then incubated at room temperature for 2 to 3 minutes. Thereafter, the mixture was centrifuged at 12000 rpm at 4° C. for 15 minutes, and the supernatant was removed into another 1.5 ml microtube and isopropanol (0.5 ml) was added into the microtube with well mixing. The mixture was incubated at room temperature for 10 minutes and then centrifuged at 12000 rpm at 4° C. for 10 minutes. The supernatant was then removed. One ml of 70% ethanol containing DEPC.H2O was used to wash the remaining sediment. The sediment was centrifuged at 7500 rpm at 4° C. for 5 minutes. The supernatant was removed. The sediment was dried by vacuum suction. The dried samples were dissolved in about 0.01 to 0.02 ml of DEPC.H2O to obtain the experimental group RNA and control group RNA. Both groups were stored at −80° C.
The OD value of RNA samples in both groups obtained from the above Experiment I were measured at a wavelength of 260 nm (RNA: OD260=1 for a 40 μg/mL solution). Each RNA sample (2 μl) was added with RNA-free water until the volume of the sample reached 10 μl. Two μl oligo (dT) (100 μg/ml) was added into each sample, and the samples were incubated at 65° C. for 5 minutes. Then, the samples were immediately placed on ice and spun down. Next, 6.5 μl of a reaction solution [4 μl of 5× buffer+1 μl of 0.1 M DTT+1 μl of RNase out+0.5 μl of SSIII (Invitrogen)] was added into each of the samples, and the samples were incubated at 50° C. for about 30 to 60 minutes and at 75° C. for 15 minutes to obtain the experimental group cDNA and control group cDNA. Both groups were stored at −80° C.
This experiment was used to detect the expression levels of ES cell-related genes, i.e., Oct4 and Sox2, etc. First, 4 μl of the experimental group cDNA or control group cDNA was added into each well of a 96-well micro-reaction plate, and mixed with 6 μl of a reaction solution [0.5 μl of 6 μM forward primer+0.5 μl of 6 μM reverse primer+5 μl of SYBR Green PCR Master mix (Roche)], wherein the SYBR Green PCR Master mix included the reagents needed for Q-PCR, such as dNTPs, MgCl, Taq DNA polymerase and 2×SYBR® Green I solution. […] The cycle threshold (CT) values were measured. […]

Setting [1] is: BP10 medium (about 10 μg BP/ml).

On to `CCCC=C1OC(=O)c2ccccc21` [BP, n-butylidenephthalide], for which the AP-positive clones stood at 85% with iPS cells (BP5 medium (about 5 μg BP/ml)), 128% in the assay with iPS cells (setting [1]), 192% in the assay with iPS cells (BP20 medium (about 20 μg BP/ml)) and 129% in the assay on iPS cells (BP40 medium (about 40 μg BP/ml)). Moreover, the “EGF mRNA expression level” value in the assay with EGF (BP5 medium (about 5 μg BP/ml)) was found to be 110%; with EGF (setting [1]), 204%. In the assay with EGF (BP-containing ES cell medium, result in words), the “mRNA expression level of EGF” value is recorded as “significantly up-regulated”.
As for “LIF: multifunctional cell factor used to maintain pluripotency of stem cells; LIF-containing medium (4 ng/ml, without BP) as comparison”, in the assay on iPS cells (LIF-containing medium (LIF 4 ng/ml, without BP)), the AP-positive clones is 226%. The “EGF mRNA expression level” value in the assay with EGF (LIF-containing medium (LIF 4 ng/ml)) is given as 145%.
